Reference: US20040023994A1 (priority 2002, published 2004)
Read-outs that look alike come from different tables or passages of the source. Marks after values point to notes of the source that are not given here.

Key:
[1] = test system: Heterozygous nude CD-1 male mice; assay: Liver function (AST, ALT in plasma) and liver histopathology in treated mice
Procedure: Heterozygous nude CD-1 male mice were treated (i.p.) with multiple doses consisting of either one dose daily for three consecutive days (cis-AVTP or trans-AVTG, 21.25 μmol/kg, 6-TG, 8.5 or 21.25 μmol/kg, or vehicle; one cycle), or one dose daily for three consecutive days, repeated again five days later (cis-AVTP, trans-AVTG or 6-TG, 8.5 or 21.25 μmol/kg, or vehicle; two cycles).
The mice were sacrificed 24 h after the last treatment. Urine was collected for 24 h before initiation of treatment and every 24 h thereafter until the mice were sacrificed. Blood was collected by cardiac puncture and blood cells counted. Sections of liver, kidney, intestines, stomach and sternum were stained with hematoxylin and eosin and subjected to pathological analysis. Bone marrow smears were prepared for assessment of bone marrow cellularity. Liver function was evaluated by measuring alanine aminotransferase-(ALT) and aspartate aminotransferase (AST) activities in plasma. Kidney function was evaluated by measuring blood urea nitrogen in plasma and γ-glutamyltransferase activity and glucose levels in urine.

NCI-H460 = conditions: for CC50: read-out: LC50
K-562 = conditions: for CC50: read-out: LC50
SNB-19 = conditions: for CC50: read-out: LC50
SK-OV-3 = conditions: for CC50: read-out: LC50
HOP-92 = conditions: for CC50: read-out: LC50
U251 = conditions: for CC50: read-out: LC50
HOP-62 = conditions: for CC50: read-out: LC50
MOLT-4 [2] = conditions: for CC50: read-out: LC50
SF-268 = conditions: for CC50: read-out: LC50
RPMI-8226 = conditions: RPMI-8226, Leukemia, NCI database, cited from earlier work; for CC50: read-out: LC50 (the source's name)
NCI-H522 = conditions: NCI-H522, Non-Small Cell Lung, NCI database, cited from earlier work; for CC50: read-out: LC50 (the source's name)
CAKI-1 = conditions: CAKI-1, Renal, NCI database, cited from earlier work; for CC50: read-out: LC50 (the source's name)
MOLT-4 [3] = conditions: MOLT-4, Leukemia, NCI database, cited from earlier work; for CC50: read-out: LC50 (the source's name)
SW-620 = conditions: SW-620, Colon, NCI database, cited from earlier work; for CC50: read-out: LC50 (the source's name)
[4] = cited from earlier work
DU-145 = conditions: DU-145, Prostate, NCI database, cited from earlier work; for CC50: read-out: LC50 (the source's name)
MALME-3M = conditions: Melanoma, NCI database, cited from earlier work; for CC50: read-out: LC50 (the source's name)
NCI-H23 = conditions: NCI-H23, Non-Small Cell Lung, NCI database, cited from earlier work; for CC50: read-out: LC50 (the source's name)
SR = conditions: Leukemia, NCI database, cited from earlier work; for CC50: read-out: LC50 (the source's name)
M14 = conditions: M14, Melanoma, NCI database, cited from earlier work; for CC50: read-out: LC50 (the source's name)
SK-MEL-2 = conditions: SK-MEL-2, Melanoma, NCI database, cited from earlier work; for CC50: read-out: LC50 (the source's name)
[5] = NCI-H460, Non-Small Cell Lung, 48 h
[6] = HOP-92, Non-Small Cell Lung, 48 h
[7] = HOP-62, Non-Small Cell Lung, 48 h

In the case of CC(=O)C=CSc1ncnc2nc[nH]c12 [cis-AVTP, 6-(2-acetylvinylthio) purine], the ALT ([1]; 8.5 μmol/kg, two cycles) is reported as 7.8 ± 4.0^a SF U/ml, the AST ([1]; 8.5 μmol/kg, two cycles) is reported as 55.1 ± 37.5^a SF U/ml and the ALT ([1]; 21.25 μmol/kg, one cycle) is reported as 2.0 ± 2.0^a,* SF U/ml. For the same compound, the AST ([1]; 21.25 μmol/kg, one cycle) was 25.5 ± 4.3^a SF U/ml, the ALT ([1]; 21.25 μmol/kg, two cycles) was 16.0 ± 4.3^a,# SF U/ml and the AST ([1]; 21.25 μmol/kg, two cycles) was 60.2 ± 30.8^a SF U/ml. For the same compound, the GI50 (NCI-H460; Homo sapiens, NCI-H460, 48 h) was 680 nM, the CC50 (NCI-H460; Homo sapiens, NCI-H460, 48 h) was 38.6 µM and the TGI (NCI-H460; [5]) was 8.71 µM. The GI50 (K-562; Homo sapiens, K562, 48 h) was 90 nM, the CC50 (K-562; Homo sapiens, K562, 48 h) was over 100 µM and the TGI (K-562; K-562, Leukemia, 48 h) was over 100 µM. For the same compound, the TGI (HL-60(TB); Leukemia, 48 h) was 4.95 µM, the GI50 (SNB-19; Homo sapiens, SNB-19, 48 h) was 3.66 µM and the CC50 (SNB-19; Homo sapiens, SNB-19, 48 h) was 76.3 µM. It also gave a TGI (SNB-19; SNB-19, CNS, 48 h) of 18.2 µM, a GI50 (SK-OV-3; Homo sapiens, SK-OV-3, 48 h) of 110 nM and a CC50 (SK-OV-3; Homo sapiens, SK-OV-3, 48 h) of 33.3 µM. For the same compound, the TGI (SK-OV-3; SK-OV-3, Ovarian, 48 h) was 5.04 µM, the TGI (HOP-92; [6]) was 5.45 µM and the GI50 (HOP-92; Homo sapiens, HOP-92, 48 h) was 1690 nM. It also gave a CC50 (HOP-92; Homo sapiens, HOP-92, 48 h) of 32.9 µM, a GI50 (U251; Homo sapiens, U-251, 48 h) of 2.74 µM and a CC50 (U251; Homo sapiens, U-251, 48 h) of 56.3 µM. The TGI (U251; U251, CNS, 48 h) was 10.2 µM, the TGI (HOP-62; [7]) was 21.2 µM and the GI50 (HOP-62; Homo sapiens, HOP-62, 48 h) was 400 nM. It also gave a CC50 (HOP-62; Homo sapiens, HOP-62, 48 h) of 88.9 µM, a GI50 (MOLT-4 [2]; Homo sapiens, MOLT-4, 48 h) of 360 nM and a CC50 (MOLT-4 [2]; Homo sapiens, MOLT-4, 48 h) of over 100 µM. For the same compound, the TGI (MOLT-4 [2]; MOLT-4, Leukemia, 48 h) was over 100 µM, the GI50 (SF-268; Homo sapiens, SF-268, 48 h) was under 10 nM and the CC50 (SF-268; Homo sapiens, SF-268, 48 h) was 27.7 µM. For the same compound, the TGI (SF-268; SF-268, CNS, 48 h) was 0.24 µM.
For Nc1nc2nc[nH]c2c(=S)[nH]1 [6-TG, 6-thioguanine], the GI50 (RPMI-8226) is given as 390 nM, the TGI (RPMI-8226) is given as 20.9 µM and the CC50 (RPMI-8226) is given as over 100 µM. For the same compound, the ALT ([1]; 8.5 μmol/kg, one cycle) was 9.2 ± 3.2 SF U/ml, the AST ([1]; 8.5 μmol/kg, one cycle) was 43.5 ± 24.8 SF U/ml and the ALT ([1]; 8.5 μmol/kg, two cycles) was 10.5 ± 6.6^a SF U/ml. The AST ([1]; 8.5 μmol/kg, two cycles) was 37.9 ± 12.2^a SF U/ml, the ALT ([1]; 21.25 μmol/kg, one cycle) was 15.0 ± 2.5^b SF U/ml and the AST ([1]; 21.25 μmol/kg, one cycle) was 44.4 ± 5.4^c SF U/ml. For the same compound, the ALT ([1]; 21.25 μmol/kg, two cycles) was 12.6 ± 4.8^a SF U/ml, the AST ([1]; 21.25 μmol/kg, two cycles) was 68.2 ± 54.5^a SF U/ml and the GI50 (NCI-H522) was 910 nM. The TGI (NCI-H522) was 6.28 µM, the CC50 (NCI-H522) was over 100 µM and the GI50 (CAKI-1) was 530 nM. For the same compound, the TGI (CAKI-1) was 15.6 µM, the CC50 (CAKI-1) was over 100 µM and the GI50 (MOLT-4 [3]) was 270 nM. The TGI (MOLT-4 [3]) was 15.4 µM, the CC50 (MOLT-4 [3]) was over 100 µM and the GI50 (SW-620) was 1.52 µM. The TGI (SW-620) was over 100 µM, the CC50 (SW-620) was over 100 µM and the “dose absorbed after oral administration” value [4] was “up to 46%”. The GI50 (DU-145) was 780 nM, the TGI (DU-145) was over 100 µM and the CC50 (DU-145) was over 100 µM. For the same compound, the CC50 (MALME-3M) was over 100 µM, the GI50 (MALME-3M) was 1340 nM and the TGI (MALME-3M) was 28.6 µM. For the same compound, the GI50 (NCI-H23) was 1060 nM, the TGI (NCI-H23) was 22.9 µM and the CC50 (NCI-H23) was over 100 µM. The CC50 (SR) was over 100 µM, the GI50 (SR) was 190 nM and the TGI (SR) was 17.9 µM. The GI50 (M14) was 580 nM, the TGI (M14) was 14.3 µM and the CC50 (M14) was over 100 µM. For the same compound, the GI50 (SK-MEL-2) was 0.92 µM, the TGI (SK-MEL-2) was 10.5 µM and the CC50 (SK-MEL-2) was over 100 µM.
In the case of Sc1ncnc2nc[nH]c12 [6-MP, 6-mercaptopurine], the GI50 (RPMI-8226) is given as 1750 nM, the TGI (RPMI-8226) is given as over 100 µM and the CC50 (RPMI-8226) is given as over 100 µM. The GI50 (NCI-H522) was 1670 nM, the TGI (NCI-H522) was over 100 µM and the CC50 (NCI-H522) was over 100 µM. For the same compound, the GI50 (CAKI-1) was 2360 nM, the TGI (CAKI-1) was over 100 µM and the CC50 (CAKI-1) was over 100 µM. For the same compound, the GI50 (MOLT-4 [3]) was 1510 nM, the TGI (MOLT-4 [3]) was over 100 µM and the CC50 (MOLT-4 [3]) was over 100 µM. For the same compound, the GI50 (SW-620) was 6.82 µM, the TGI (SW-620) was over 100 µM and the CC50 (SW-620) was over 100 µM. The “dose absorbed after oral administration” value [4] was at most 37%, the GI50 (DU-145) was 1730 nM and the TGI (DU-145) was over 100 µM. For the same compound, the CC50 (DU-145) was over 100 µM, the CC50 (MALME-3M) was over 100 µM and the GI50 (MALME-3M) was 4280 nM. The TGI (MALME-3M) was over 100 µM, the GI50 (NCI-H23) was 3740 nM and the TGI (NCI-H23) was over 100 µM. The CC50 (NCI-H23) was over 100 µM, the CC50 (SR) was over 100 µM and the GI50 (SR) was 1270 nM. For the same compound, the TGI (SR) was over 100 µM, the GI50 (M14) was 670 nM and the TGI (M14) was over 100 µM. For the same compound, the CC50 (M14) was over 100 µM, the GI50 (SK-MEL-2) was 5.81 µM and the TGI (SK-MEL-2) was over 100 µM. The CC50 (SK-MEL-2) was over 100 µM.
CC(=O)C=CSc1nc(N)nc2nc[nH]c12 [trans-AVTG, 6-(2-acetylvinylthio) guanine] gave a GI50 (NCI-H460; [5]) of 590 nM, a TGI (NCI-H460; [5]) of 3.57 µM and a CC50 (NCI-H460; [5]) of 49.4 µM. It also gave a GI50 (K-562; K-562, Leukemia, 48 h) of 500 nM, a TGI (K-562; K-562, Leukemia, 48 h) of over 100 µM and a CC50 (K-562; K-562, Leukemia, 48 h) of over 100 µM. It also gave a GI50 (HL-60(TB); Leukemia, 48 h) of 3.77 µM, a TGI (HL-60(TB); Leukemia, 48 h) of 16.6 µM and a CC50 (HL-60(TB); read-out: LC50, Leukemia, 48 h) of over 100 µM. For the same compound, the GI50 (SNB-19; SNB-19, CNS, 48 h) was 18.7 µM, the TGI (SNB-19; SNB-19, CNS, 48 h) was 50.9 µM and the CC50 (SNB-19; SNB-19, CNS, 48 h) was over 100 µM. It also gave a GI50 (SK-OV-3; SK-OV-3, Ovarian, 48 h) of 240 nM, a TGI (SK-OV-3; SK-OV-3, Ovarian, 48 h) of 0.78 µM and a CC50 (SK-OV-3; SK-OV-3, Ovarian, 48 h) of over 100 µM. For the same compound, the GI50 (HOP-92; [6]) was 3010 nM, the TGI (HOP-92; [6]) was 19.4 µM and the CC50 (HOP-92; [6]) was 50 µM. It also gave a GI50 (U251; U251, CNS, 48 h) of 6.55 µM, a TGI (U251; U251, CNS, 48 h) of 48.4 µM and a CC50 (U251; U251, CNS, 48 h) of over 100 µM. It also gave a GI50 (HOP-62; [7]) of 1620 nM, a TGI (HOP-62; [7]) of over 100 µM and a CC50 (HOP-62; [7]) of over 100 µM. It also gave a GI50 (MOLT-4 [2]; MOLT-4, Leukemia, 48 h) of 700 nM, a TGI (MOLT-4 [2]; MOLT-4, Leukemia, 48 h) of over 100 µM and a CC50 (MOLT-4 [2]; MOLT-4, Leukemia, 48 h) of over 100 µM. The GI50 (SF-268; SF-268, CNS, 48 h) was under 10 nM, the TGI (SF-268; SF-268, CNS, 48 h) was 0.43 µM and the CC50 (SF-268; SF-268, CNS, 48 h) was 24.4 µM.
